Assay results as given in patent publication US10428080B2, “TBK/IKK inhibitor compounds and uses thereof” (Merck Patent GmbH, priority 2015, dated 2019).
pIC50: −log10 of the molar value. Counter-ions that a name gives are not always drawn. Like-named read-outs stand apart in the source and are kept apart here.

How the values were obtained:
TBK1 = molecular target: T1, TBK1 (Homo sapiens, UniProt Q9UHD2); test: TBK Biochemical Assay; settings: read-out: TBK1 IC50
T1 sequence (Q9UHD2 1-729): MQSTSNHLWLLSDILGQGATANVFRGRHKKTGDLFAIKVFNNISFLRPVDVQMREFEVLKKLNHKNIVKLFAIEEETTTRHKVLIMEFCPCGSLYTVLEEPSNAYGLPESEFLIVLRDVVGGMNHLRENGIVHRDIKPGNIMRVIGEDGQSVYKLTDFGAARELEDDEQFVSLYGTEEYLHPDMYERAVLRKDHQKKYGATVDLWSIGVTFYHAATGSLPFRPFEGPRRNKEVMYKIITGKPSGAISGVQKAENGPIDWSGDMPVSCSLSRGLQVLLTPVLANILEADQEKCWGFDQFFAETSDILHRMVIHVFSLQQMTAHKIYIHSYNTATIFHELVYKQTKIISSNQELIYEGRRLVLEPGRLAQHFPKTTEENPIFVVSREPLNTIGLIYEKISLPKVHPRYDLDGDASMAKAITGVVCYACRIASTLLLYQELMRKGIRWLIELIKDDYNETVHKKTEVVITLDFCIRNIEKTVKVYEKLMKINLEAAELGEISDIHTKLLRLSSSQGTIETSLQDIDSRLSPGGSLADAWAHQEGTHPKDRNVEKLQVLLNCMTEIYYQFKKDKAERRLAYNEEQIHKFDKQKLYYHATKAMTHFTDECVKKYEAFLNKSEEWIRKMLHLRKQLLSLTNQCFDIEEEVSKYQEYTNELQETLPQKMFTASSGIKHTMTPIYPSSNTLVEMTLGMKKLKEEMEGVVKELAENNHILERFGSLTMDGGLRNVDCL
Summary of the method: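 TBK1 enzyme and substrate incubated with compounds (10-point 1:4 dilution, top 30 uM final, 1% DMSO) for 90 min at 25° C, then stopped. Substrate/product peaks read by microfluidic mobility-shift (Caliper LabChip); 10 uM staurosporine as full-inhibition control.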

IKKε = molecular target: T2, IKKε (Homo sapiens, UniProt Q14164); test: IKKe Biochemical Assay; settings: read-out: IKKε IC50
T2 sequence (Q14164 1-716): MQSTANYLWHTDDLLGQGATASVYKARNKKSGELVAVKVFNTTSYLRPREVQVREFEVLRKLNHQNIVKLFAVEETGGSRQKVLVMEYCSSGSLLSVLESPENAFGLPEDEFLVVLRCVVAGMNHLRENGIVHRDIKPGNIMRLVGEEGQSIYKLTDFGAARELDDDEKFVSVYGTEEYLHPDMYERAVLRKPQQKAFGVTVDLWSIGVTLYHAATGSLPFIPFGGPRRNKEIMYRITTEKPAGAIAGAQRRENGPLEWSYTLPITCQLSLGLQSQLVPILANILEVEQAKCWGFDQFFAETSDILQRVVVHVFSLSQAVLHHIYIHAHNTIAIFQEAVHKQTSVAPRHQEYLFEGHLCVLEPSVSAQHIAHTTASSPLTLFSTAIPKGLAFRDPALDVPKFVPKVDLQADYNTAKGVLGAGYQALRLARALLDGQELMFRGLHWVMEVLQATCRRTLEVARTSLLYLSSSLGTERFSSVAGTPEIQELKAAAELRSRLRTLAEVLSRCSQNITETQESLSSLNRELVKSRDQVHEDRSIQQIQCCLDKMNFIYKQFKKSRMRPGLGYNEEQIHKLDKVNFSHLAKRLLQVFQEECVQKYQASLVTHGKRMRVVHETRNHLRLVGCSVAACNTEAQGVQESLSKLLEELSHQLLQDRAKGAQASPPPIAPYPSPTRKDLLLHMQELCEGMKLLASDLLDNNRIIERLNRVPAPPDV
Summary of the method: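 Recombinant IKKε and substrate were incubated with compound (10-point 1:4 series, top 30 uM final, 1% DMSO) for 90 min at 25° C, then stopped. Substrate-to-product conversion was read by LabChip microfluidic mobility shift; 10 uM staurosporine served as full-inhibition wells.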

[1] = tested on: phosphorylation of the IRF-3 protein in MDA-MB-468 cells; test: pIRF3 immunocytochemistry cell based assay; settings: Homo sapiens
Summary of the method: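 MDA-MB-468 cells got compounds (10-point, 3-fold from 10 uM) for 1 h at 37 °C, then 10 ug/ml Poly(I:C) for 2 h. Fixed, permeabilized cells were immunostained for pIRF3 with AlexaFluor488 and counterstained with PI. % phosphorylation was read by laser scanning cytometry, and IC50 curves were fitted.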

[2] = MDA-MB-468 cells, Poly(I:C) stimulation, read-out: pIRF3 IC50

Row | Compound | pIC50 (TBK1) | pIC50 (IKKε) | pIC50 [1, 2] | pIC50 ([1]; MDA-MB-468, read-out: pIRF3 IC50)
1 | COc1cc(C(=O)NC2CN3CCC2CC3)ncc1-c1cc2nccc(-c3ccc(N4CCC(F)C4)c(C#N)c3)c2o1 (stereo not drawn) [Compound 443, N-[1-azabicyclo[2.2.2]octan-3-yl]-5-[7-[3-cyano-4-(3-fluoropyrrolidin-1-yl)phenyl]furo[3,2-b]pyridin-2-yl]-4-methoxypyridine-2-carboxamide] | > 7.00 | > 7.00 | 6.00 to 7.00 | –
2 | COc1cc(C(=O)N(C)C)ccc1-c1cc2nccc(-c3ccc(NC4CCOCC4F)c(C#N)c3)c2o1 (stereo not drawn) [Compound 78] | > 7.00 | > 7.00 | 6.00 to 7.00 | –
3 | COc1cc(C(=O)NC2C3COCC32)cnc1-c1cc2nccc(-c3ccc(N4CC[C@H](F)C4)c(C#N)c3)c2o1 (stereo in doubt) [Compound 465, 6-[7-[3-cyano-4-(3-fluoropyrrolidin-1-yl)phenyl]furo[3,2-b]pyridin-2-yl]-5-methoxy-N-[3-oxabicyclo[3.1.0]hexan-6-yl]pyridine-3-carboxamide] | > 7.00 | > 7.00 | 6.00 to 7.00 | –
4 | COc1cc(C(=O)N(C)C)cnc1-c1cc2ncc(F)c(-c3ccc(NC4CCOCC4)c(C#N)c3)c2o1 [Compound 329, 6-(7-[3-cyano-4-[(oxan-4-yl)amino]phenyl]-6-fluorofuro[3,2-b]pyridin-2-yl)-5-methoxy-N,N-dimethylpyridine-3-carboxamide] | > 7.00 | 6.00 to 7.00 | 6.00 to 7.00 | –
5 | COc1cc(C(=O)N2CCCCN2C)cnc1-c1cc2nccc(-c3ccc(OC4CCOCC4)c(C#N)c3)c2o1 [Compound 408, 5-(2-[3-methoxy-5-[(2-methyl-1,2-diazinan-1-yl)carbonyl]pyridin-2-yl]furo[3,2-b]pyridin-7-yl)-2-(oxan-4-yloxy)benzonitrile] | > 7.00 | > 7.00 | – | 6.00 to 7.00

The next lines start with results.

Row | pIC50 (TBK1) | pIC50 (IKKε) | pIC50 [1, 2] | Compound | pIC50 ([1]; MDA-MB-468, read-out: pIRF3 IC50)
6 | > 7.00 | > 7.00 | 6.00 to 7.00 | COc1cc(C(=O)N2CC3CN(C)CC3C2)ccc1-c1cc2nccc(-c3ccc(N4CC[C@@H](F)C4)c(C#N)c3)c2o1 (stereo partly drawn) [Compound 501] | –
7 | > 7.00 | > 7.00 | 6.00 to 7.00 | COc1cc(C(=O)NC2CCC(O)C2)ccc1-c1cc2nccc(-c3ccc(OC4CCOCC4)c(C#N)c3)c2o1 (stereo not drawn) [Compound 68, 4-{7-[3-Cyano-4-(tetrahydro-pyran-4-yloxy)-phenyl]-furo[3,2-b]pyridin-2-yl}-N-(3-hydroxy-cyclopentyl)-3-methoxy-benzamide] | –
8 | > 7.00 | > 7.00 | 6.00 to 7.00 | COc1cc(C(=O)NNC(=O)OC(C)(C)C)ccc1-c1cc2nccc(-c3ccc(OC4CCOCC4)c(C#N)c3)c2o1 [Compound 67, N′-(4-{7-[3-Cyano-4-(tetrahydro-pyran-4-yloxy)-phenyl]-furo[3,2-b]pyridin-2-yl}-3-methoxy-benzoyl)-hydrazinecarboxylic acid tert-butyl ester] | –
9 | > 7.00 | > 7.00 | > 7.00 | COc1cc(C(=O)N2CC3CCC2CN3C)ccc1-c1cc2nccc(-c3ccc(OC4CCOCC4)c(C#N)c3)c2o1 (stereo not drawn) [Compound 503] | –
10 | > 7.00 | > 7.00 | 6.00 to 7.00 | COc1cc(C(=O)N2CC(O)C2)ccc1-c1cc2nccc(-c3ccc(OC4CCOCC4)c(C#N)c3)c2o1 [Compound 39, 5-{2-[4-(3-Hydroxy-azetidine-1-carbonyl)-2-methoxy-phenyl]-furo[3,2-b]pyridin-7-yl}-2-(tetrahydro-pyran-4-yloxy)-benzonitrile] | –
11 | > 7.00 | > 7.00 | > 7.00 | COc1cc(C(=O)N2C[C@@H]3C[C@H]2CN3C)ccc1-c1cc2nccc(-c3ccc(OC4CCOCC4)c(C#N)c3)c2o1 [Compound 508] | –
12 | > 7.00 | > 7.00 | 6.00 to 7.00 | COc1cc(C(=O)NC2CNCC(F)(F)C2)ccc1-c1cc2nccc(-c3ccc(OC4CCOCC4)c(C#N)c3)c2o1 (stereo not drawn) [Compound 98, 4-{7-[3-Cyano-4-(tetrahydro-pyran-4-yloxy)-phenyl]-furo[3,2-b]pyridin-2-yl}-N-(5,5-difluoro-piperidin-3-yl)-3-methoxy-benzamide hydrochloride] | –
